# Assay results: PubChem BioAssay (NCI)
#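 Briefly, cells in 96-well plates were exposed to five compound concentrations for 48 h, and endpoints were estimated by linear interpolation. TGI is the concentration that stops growth completely.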
# Columns and labels:
# Assay in all cases: NCI-60 cell line screen, 48 h
# EKVX NSCLC = system: EKVX NSCLC
# SNB-75 CNS = system: SNB-75 CNS
# OVCAR-3 ovarian = system: OVCAR-3 ovarian
# NCI-H522 lung = system: NCI-H522 lung
# DLD-1 colon = system: DLD-1 colon
# 786-0 renal = system: 786-0 renal
# SN12C renal = system: SN12C renal
# HOP-92 NSCLC = system: HOP-92 NSCLC
# HOP-62 NSCLC = system: HOP-62 NSCLC
# NCI-H23 lung = system: NCI-H23 lung
# SW-620 colon = system: SW-620 colon
# RPMI-8226 leukemia = system: RPMI-8226 leukemia
# UO-31 renal = system: UO-31 renal
# UACC-257 melanoma = system: UACC-257 melanoma
# OVCAR-4 ovarian = system: OVCAR-4 ovarian
# TK-10 renal = system: TK-10 renal
# RXF 393 renal = system: RXF 393 renal
# NCI-H460 lung = system: NCI-H460 lung
# SK-OV-3 ovarian = system: SK-OV-3 ovarian
# HT29 colon = system: HT29 colon
# OVCAR-5 ovarian = system: OVCAR-5 ovarian
# MOLT-4 leukemia = system: MOLT-4 leukemia
# K-562 leukemia = system: K-562 leukemia
# HCT-116 colon = system: HCT-116 colon
# SK-MEL-5 melanoma = system: SK-MEL-5 melanoma
# KM12 colon = system: KM12 colon
# HCT-15 colon = system: HCT-15 colon
# SK-MEL-2 melanoma = system: SK-MEL-2 melanoma
# CAKI-1 renal = system: CAKI-1 renal
# DMS 273 small cell lung = system: DMS 273 small cell lung
# SF-295 CNS = system: SF-295 CNS
# SF-268 CNS = system: SF-268 CNS
# SK-MEL-28 melanoma = system: SK-MEL-28 melanoma
# SF-539 CNS = system: SF-539 CNS
# M19-MEL melanoma = system: M19-MEL melanoma
# OVCAR-8 ovarian = system: OVCAR-8 ovarian
# HCC-2998 colon = system: HCC-2998 colon
# A549 NSCLC = system: A549 NSCLC
# UACC-62 melanoma = system: UACC-62 melanoma
# XF 498 CNS = system: XF 498 CNS
# NCI-H226 lung = system: NCI-H226 lung
# CCRF-CEM leukemia = system: CCRF-CEM leukemia
# KM20L2 colon = system: KM20L2 colon
# COLO 205 colon = system: COLO 205 colon
# SNB-19 CNS = system: SNB-19 CNS
# DMS 114 small cell lung = system: DMS 114 small cell lung
# LXFL 529 NSCLC = system: LXFL 529 NSCLC
# ACHN renal = system: ACHN renal
# HL-60(TB) leukemia = system: HL-60(TB) leukemia
# M14 melanoma = system: M14 melanoma
# A498 renal = system: A498 renal
# SNB-78 CNS = system: SNB-78 CNS
# LOX IMVI melanoma = system: LOX IMVI melanoma
# U251 CNS = system: U251 CNS
# IGROV1 ovarian = system: IGROV1 ovarian
# SR leukemia = system: SR leukemia
# MALME-3M melanoma = system: MALME-3M melanoma
# HOP-18 NSCLC = system: HOP-18 NSCLC
structure (smiles),measurement,setting,value
CCN(CC)CCOc1ccc(C(O)(Cc2ccc(OC)cc2)c2ccccc2)cc1 (stereo not given),TGI,EKVX NSCLC,80.6 µM
same,TGI,SNB-75 CNS,27.6 µM
same,TGI,OVCAR-3 ovarian,> 100 µM
same,TGI,NCI-H522 lung,40.9 µM
same,TGI,DLD-1 colon,72.3 µM
same,TGI,786-0 renal,32.3 µM
same,TGI,SN12C renal,> 100 µM
same,TGI,HOP-92 NSCLC,46 µM
same,TGI,HOP-62 NSCLC,32.5 µM
same,TGI,NCI-H23 lung,45.1 µM
same,TGI,SW-620 colon,34.5 µM
same,TGI,RPMI-8226 leukemia,39.7 µM
same,TGI,UO-31 renal,62 µM
same,TGI,UACC-257 melanoma,30.3 µM
same,TGI,OVCAR-4 ovarian,75.3 µM
same,TGI,TK-10 renal,76.4 µM
same,TGI,RXF 393 renal,30.4 µM
same,TGI,NCI-H460 lung,51.9 µM
same,TGI,SK-OV-3 ovarian,57.9 µM
same,TGI,HT29 colon,14.6 µM
same,TGI,OVCAR-5 ovarian,61.5 µM
same,TGI,MOLT-4 leukemia,38.4 µM
same,TGI,K-562 leukemia,18.6 µM
same,TGI,HCT-116 colon,26.8 µM
same,TGI,SK-MEL-5 melanoma,26.1 µM
same,TGI,KM12 colon,36.2 µM
same,TGI,HCT-15 colon,51 µM
same,TGI,SK-MEL-2 melanoma,35.9 µM
same,TGI,CAKI-1 renal,50.9 µM
same,TGI,DMS 273 small cell lung,28.3 µM
same,TGI,SF-295 CNS,33.1 µM
same,TGI,SF-268 CNS,52 µM
same,TGI,SK-MEL-28 melanoma,27 µM
same,TGI,SF-539 CNS,25.1 µM
same,TGI,M19-MEL melanoma,29.5 µM
same,TGI,OVCAR-8 ovarian,> 100 µM
same,TGI,HCC-2998 colon,27.5 µM
same,TGI,A549 NSCLC,48.5 µM
same,TGI,UACC-62 melanoma,31 µM
same,TGI,XF 498 CNS,27.5 µM
same,TGI,NCI-H226 lung,77.5 µM
same,TGI,CCRF-CEM leukemia,44.9 µM
same,TGI,KM20L2 colon,9.27 µM
same,TGI,COLO 205 colon,24.9 µM
same,TGI,SNB-19 CNS,67.5 µM
same,TGI,DMS 114 small cell lung,31.1 µM
same,TGI,LXFL 529 NSCLC,37.2 µM
same,TGI,ACHN renal,65.3 µM
same,TGI,HL-60(TB) leukemia,24.9 µM
same,TGI,M14 melanoma,27.8 µM
same,TGI,A498 renal,41.2 µM
same,TGI,SNB-78 CNS,44.7 µM
same,TGI,LOX IMVI melanoma,29 µM
same,TGI,U251 CNS,35.5 µM
same,TGI,IGROV1 ovarian,87.8 µM
same,TGI,SR leukemia,32 µM
same,TGI,MALME-3M melanoma,33 µM
O=C(CSc1nnc(-c2ccc(N=Cc3ccc(Cl)cc3)cc2)o1)Nc1ccc([N+](=O)[O-])cc1,TGI,EKVX NSCLC,> 100 µM
same,TGI,SNB-75 CNS,58.1 µM
same,TGI,NCI-H522 lung,38.3 µM
same,TGI,786-0 renal,36.1 µM
same,TGI,SN12C renal,37.7 µM
same,TGI,HOP-62 NSCLC,> 100 µM
same,TGI,NCI-H23 lung,38.1 µM
same,TGI,SW-620 colon,36.3 µM
same,TGI,RPMI-8226 leukemia,8.01 µM
same,TGI,UO-31 renal,37.2 µM
same,TGI,UACC-257 melanoma,44.3 µM
same,TGI,OVCAR-4 ovarian,84.9 µM
same,TGI,TK-10 renal,> 100 µM
same,TGI,RXF 393 renal,34.6 µM
same,TGI,NCI-H460 lung,> 100 µM
same,TGI,SK-OV-3 ovarian,> 100 µM
same,TGI,HT29 colon,35.9 µM
same,TGI,HOP-18 NSCLC,> 100 µM
same,TGI,MOLT-4 leukemia,36.7 µM
same,TGI,K-562 leukemia,97.1 µM
same,TGI,HCT-116 colon,9.43 µM
same,TGI,SK-MEL-5 melanoma,67.9 µM
same,TGI,HCT-15 colon,32.6 µM
same,TGI,SK-MEL-2 melanoma,60.8 µM
same,TGI,DMS 273 small cell lung,30.4 µM
same,TGI,SF-295 CNS,79.4 µM
same,TGI,SF-268 CNS,46.1 µM
same,TGI,SK-MEL-28 melanoma,33.7 µM
same,TGI,M19-MEL melanoma,36.9 µM
same,TGI,OVCAR-8 ovarian,> 100 µM
same,TGI,A549 NSCLC,> 100 µM
same,TGI,UACC-62 melanoma,42.4 µM
same,TGI,XF 498 CNS,47.1 µM
same,TGI,NCI-H226 lung,48.6 µM
same,TGI,CCRF-CEM leukemia,47.6 µM
same,TGI,KM20L2 colon,73.5 µM
same,TGI,COLO 205 colon,> 100 µM
same,TGI,SNB-19 CNS,33.7 µM
same,TGI,DMS 114 small cell lung,32.9 µM
same,TGI,LXFL 529 NSCLC,35.9 µM
same,TGI,ACHN renal,25.7 µM
same,TGI,HL-60(TB) leukemia,63.9 µM
same,TGI,M14 melanoma,42 µM
same,TGI,SNB-78 CNS,84.4 µM
same,TGI,LOX IMVI melanoma,22.4 µM
same,TGI,U251 CNS,37.1 µM
same,TGI,SR leukemia,48.7 µM
same,TGI,MALME-3M melanoma,> 100 µM
